# Test results from ChEMBL document CHEMBL5316326, “Discovery of a Novel Covalent EZH2 Inhibitor Based on Tazemetostat Scaffold for the Treatment of Ovarian Cancer” (J Med Chem, 2023).
# The source made the active and inactive calls. The calls are words filed in the database; no cut-off is given here.
# Columns and labels:
# [1] = Toxicity in BALB/C nude mouse xenografted with human PA-1 cells assessed as pathological changes in liver at 75 to 150 mg/kg,po BID for 21 days by H&E staining based microscopic analysis; type: organism-based; settings: in vivo, 504 h, dose 75-150 mg/kg, time 21 day
# [2] = Volume of distribution at steady state in Sprague-Dawley rat at 5 mg/kg, iv and measured upto 24 hrs by LC-MS/MS analysis; type: ADME, organism-based; settings: in vivo
# [3] = Tmax in Sprague-Dawley rat at 5 mg/kg, iv and measured upto 24 hrs by LC-MS/MS analysis; type: ADME, organism-based; settings: in vivo
# [4] = Antiproliferative activity against human COV362 cells assessed as inhibition of cell proliferation incubated for 72 hrs by MTT assay; type: functional, cell-based; settings: COV362, 72 h
# PA-1 [5] = experiment: Antiproliferative activity against human PA-1 cells assessed as inhibition of cell proliferation incubated for 3 to 5 days by MTT assay; type: functional, cell-based; settings: time 3-5 day, TDE = time-dependent effect
# [6] = Toxicity in BALB/C nude mouse xenografted with human PA-1 cells assessed as pathological changes in heart at 75 to 150 mg/kg,po BID for 21 days by H&E staining based microscopic analysis; type: organism-based; settings: in vivo, 504 h, dose 75-150 mg/kg, time 21 day
# [7] = tested on: Histone-lysine N-methyltransferase EZH2 (Homo sapiens), Q15910 [A677G]; settings: dose 10.0 nM
# Description: Inhibition of EZH2 A667G mutant (unknown origin) at 10 nM by AlphaLlSA assay
# A2780 [8] = experiment: Antiproliferative activity against human A2780 cells assessed as inhibition of cell proliferation incubated for 3 to 5 days by MTT assay; type: functional, cell-based; settings: time 3-5 day, TDE = time-dependent effect
# NCI-H1703 = experiment: Antiproliferative activity against human NCI-H1703 cells assessed as inhibition of cell proliferation incubated for 72 hrs by MTT assay; type: functional, cell-based; settings: NCI-H1703, 72 h
# PA-1 [9] = experiment: Induction of apoptosis in human PA-1 cells assessed as necrotic cells at 5 uM incubated for 48 hrs by AnnexinV-FITC/PI staining based flow cytometry analysis (Rvb= 1.48%); type: functional
# [10] = Cmax in Sprague-Dawley rat at 100 mg/kg, po and measured upto 24 hrs by LC-MS/MS analysis; type: ADME, organism-based; design: dose 100 mg/kg, time < 24 hrs, route po; settings: in vivo
# [11] = tested on: Histone-lysine N-methyltransferase EZH2 (Homo sapiens), Q15910 [A677G]; experiment: Inhibition of EZH2 […] mutant (unknown origin) at 1 nM by AlphaLlSA assay
# MCF7 = experiment: Antiproliferative activity against human MCF7 cells assessed as inhibition of cell proliferation incubated for 72 hrs by MTT assay; type: functional, cell-based; settings: MCF7, 72 h
# [12] = biological target: T1, Histone-lysine N-methyltransferase EZH2 (Homo sapiens, UniProt Q15910); experiment: Inhibition of EZH2 methyltransferase activity in human PA-1 cells assessed as reduction in H3K27me3 level at 10 uM and measured upto 4 days by Western blot analysis; type: cell-based; settings: time <= 4.0 day, TDE = time-dependent effect
# Target sequence in this assay (Q15910 whole entry, looked up): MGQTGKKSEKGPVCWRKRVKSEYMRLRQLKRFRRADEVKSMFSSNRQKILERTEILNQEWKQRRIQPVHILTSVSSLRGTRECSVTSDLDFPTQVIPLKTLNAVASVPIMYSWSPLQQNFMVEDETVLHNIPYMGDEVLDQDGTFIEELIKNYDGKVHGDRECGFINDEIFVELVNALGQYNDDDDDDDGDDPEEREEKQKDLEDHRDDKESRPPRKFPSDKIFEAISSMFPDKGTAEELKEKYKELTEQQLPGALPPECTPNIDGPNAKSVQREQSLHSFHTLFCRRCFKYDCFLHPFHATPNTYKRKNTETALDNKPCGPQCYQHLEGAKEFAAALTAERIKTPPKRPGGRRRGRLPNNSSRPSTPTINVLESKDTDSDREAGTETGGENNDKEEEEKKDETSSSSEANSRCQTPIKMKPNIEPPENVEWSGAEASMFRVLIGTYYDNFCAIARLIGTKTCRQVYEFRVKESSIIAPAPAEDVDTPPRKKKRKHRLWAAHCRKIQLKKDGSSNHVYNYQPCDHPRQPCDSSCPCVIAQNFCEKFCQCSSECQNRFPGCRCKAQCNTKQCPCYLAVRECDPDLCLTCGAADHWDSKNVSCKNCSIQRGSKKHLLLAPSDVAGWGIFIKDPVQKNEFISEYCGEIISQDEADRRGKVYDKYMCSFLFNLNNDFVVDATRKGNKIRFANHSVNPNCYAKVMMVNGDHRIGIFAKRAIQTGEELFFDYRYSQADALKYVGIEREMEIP
# [13] = biological target: T1, Histone-lysine N-methyltransferase EZH2; experiment: Inhibition of EZH2 methyltransferase activity in human PA-1 cells assessed as reduction in H3K27me3 level at 10 uM incubated for 3 days followed by compound washout and measured after 4 days by Western blot analysis; type: cell-based; settings: time 3.0 day
# Target sequence in this assay (Q15910 whole entry, looked up): as above
# [14] = biological target: Histone-lysine N-methyltransferase EZH1 (Homo sapiens) (UniProt Q92800); experiment: Inhibition of EZH1 (unknown origin) by AlphaLlSA assay
# [15] = tested on: Histone-lysine N-methyltransferase EZH2 (Homo sapiens), Q15910 [Y641N]; experiment: Inhibition of EZH2 […] mutant (unknown origin) at 1 nM by AlphaLlSA assay
# [16] = Glutathione reactivity in pH 7.4 phosphate buffer assessed as GSH-adduct formation at 1 mM incubated for 2 to 12 hrs by HPLC-MS analysis; type: physicochemical; settings: pH 7.4, 1000 µM, time 2-12 hrs
# [17] = biological target: T1, Histone-lysine N-methyltransferase EZH2; experiment: Inhibition of EZH2 methyltransferase activity in human A2780 cells assessed as reduction in H3K27me3 level incubated for 3 days by Western blot analysis; type: cell-based
# Target sequence in this assay (Q15910 whole entry): as the sequence (Q15910 whole entry, looked up) above
# PA-1 [18] = experiment: Induction of apoptosis in human PA-1 cells assessed as early apoptotic cells at 10 uM incubated for 48 hrs by AnnexinV-FITC/PI staining based flow cytometry analysis (Rvb= 6.89%); type: functional
# PA-1 [19] = experiment: Antiproliferative activity against human PA-1 cells assessed as inhibition of cell proliferation incubated for 72 hrs by MTT assay; type: functional, cell-based; settings: PA-1, 72 h
# A549 = experiment: Antiproliferative activity against human A549 cells assessed as inhibition of cell proliferation incubated for 72 hrs by MTT assay; type: functional, cell-based; settings: A549, 72 h
# [20] = biological target: Protein arginine N-methyltransferase 1 (Homo sapiens) (UniProt Q99873); experiment: Inhibition of PRMT1 (unknown origin) at 1 to 10 uM by AlphaLlSA assay; settings: dose 1-10 µM
# [21] = Toxicity in BALB/C nude mouse xenografted with human PA-1 cells assessed as body weight change at 75 to 150 mg/kg,po BID for 21 days; type: organism-based; settings: in vivo, 504 h, dose 75-150 mg/kg, time 21 day
# Mus musculus = experiment: In vivo inhibition of EZH2 in human PA-1 cells xenografted in BALB/C nude mouse assessed as reduction in H3K27me3 expression level at 75 to 150 mg/kg,po BID for 21 days by immunohistochemical analysis; type: functional, organism-based; settings: dose 75-150 mg/kg, time 21.0 day
# PA-1 [22] = experiment: Inhibition of colony formation in human PA-1 cells assessed as reduction in number of colonies at 0.25 to 10 uM incubated for 14 days with medium change every 3 days by crystal violet staining method; type: functional, cell-based; settings: dose 0.25-10 µM, time 14.0 day
# PA-1 [23] = experiment: Induction of apoptosis in human PA-1 cells assessed as early apoptotic cells at 40 uM incubated for 48 hrs by AnnexinV-FITC/PI staining based flow cytometry analysis (Rvb= 6.89%); type: functional
# [24] = tested on: Histone-lysine N-methyltransferase EZH2 (Homo sapiens), Q15910 [Y641F]; settings: dose 10.0 nM
# Description: Inhibition of EZH2 Y614F mutant (unknown origin) at 10 nM by AlphaLlSA assay
# [25] = tested on: Histone-lysine N-methyltransferase EZH2 (Homo sapiens), Q15910 [Y641F]; experiment: Inhibition of EZH2 […] mutant (unknown origin) at 1 nM by AlphaLlSA assay
# A2780 [26] = experiment: Antiproliferative activity against human A2780 cells assessed as inhibition of cell proliferation incubated for 72 hrs by MTT assay; type: functional, cell-based; settings: A2780, 72 h
# OVCAR-3 = experiment: Antiproliferative activity against human OVCAR-3 cells assessed as inhibition of cell proliferation incubated for 72 hrs by MTT assay; type: functional, cell-based; settings: OVCAR-3, 72 h
# PA-1 [27] = experiment: Induction of apoptosis in human PA-1 cells assessed as late apoptotic cells at 5 uM incubated for 48 hrs by AnnexinV-FITC/PI staining based flow cytometry analysis (Rvb= 3.09%); type: functional
# PA-1 [28] = experiment: Inhibition of colony formation in human PA-1 cells assessed as reduction in size of colonies at 0.25 to 10 uM incubated for 14 days with medium change every 3 days by crystal violet staining method; type: functional, cell-based; settings: dose 0.25-10 µM, time 14.0 day
# [29] = biological target: T1, Histone-lysine N-methyltransferase EZH2; experiment: Binding affinity to wild type recombinant EZH2 (494 to 737 residues) (unknown origin) expressed in Escherichia coli assessed as adduct formation incubated for 2 hrs by LC-MS analysis
# Target sequence in this assay (Q15910 whole entry, looked up): as above
# [30] = Cmax in Sprague-Dawley rat at 5 mg/kg, iv and measured upto 24 hrs by LC-MS/MS analysis; type: ADME, organism-based; design: dose 5 mg/kg, time < 24 hrs, route iv; settings: in vivo
# Histone-lysine N-methyltransferase EZH2 (Homo sapiens), Q15910 [Y641F], sequence (Q15910 whole entry Y641F, looked up): as the sequence (Q15910 whole entry, looked up) above, with Y641F counted along it
# Histone-lysine N-methyltransferase EZH2 (Homo sapiens), Q15910 [A677G], sequence (Q15910 whole entry A677G): as the sequence (Q15910 whole entry, looked up) above, with A677G counted along it
# Histone-lysine N-methyltransferase EZH2 (Homo sapiens), Q15910 [Y641N], sequence (Q15910 whole entry Y641N): as the sequence (Q15910 whole entry, looked up) above, with Y641N counted along it
# Histone-lysine N-methyltransferase EZH1 (Homo sapiens), sequence (Q92800 whole entry): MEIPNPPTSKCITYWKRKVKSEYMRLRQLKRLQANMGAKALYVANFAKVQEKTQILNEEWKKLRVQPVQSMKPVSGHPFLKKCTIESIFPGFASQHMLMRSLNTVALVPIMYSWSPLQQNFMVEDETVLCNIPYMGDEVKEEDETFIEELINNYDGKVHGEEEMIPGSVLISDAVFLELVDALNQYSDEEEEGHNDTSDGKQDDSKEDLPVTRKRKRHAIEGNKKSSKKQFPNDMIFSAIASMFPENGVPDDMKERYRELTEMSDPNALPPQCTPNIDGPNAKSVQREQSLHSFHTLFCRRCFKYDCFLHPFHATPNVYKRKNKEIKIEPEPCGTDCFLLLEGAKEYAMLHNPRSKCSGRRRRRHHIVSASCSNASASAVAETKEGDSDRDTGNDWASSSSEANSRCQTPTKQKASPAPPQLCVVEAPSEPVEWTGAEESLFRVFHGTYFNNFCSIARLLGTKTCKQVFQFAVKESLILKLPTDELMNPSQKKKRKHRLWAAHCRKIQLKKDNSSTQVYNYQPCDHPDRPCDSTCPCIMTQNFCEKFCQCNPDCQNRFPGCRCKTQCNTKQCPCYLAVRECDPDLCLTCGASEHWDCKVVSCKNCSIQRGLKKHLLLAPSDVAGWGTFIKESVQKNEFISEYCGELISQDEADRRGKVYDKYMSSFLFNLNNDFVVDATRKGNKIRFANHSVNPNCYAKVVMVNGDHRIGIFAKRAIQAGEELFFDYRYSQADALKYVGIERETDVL
# Protein arginine N-methyltransferase 1 (Homo sapiens), sequence (Q99873 whole entry, looked up): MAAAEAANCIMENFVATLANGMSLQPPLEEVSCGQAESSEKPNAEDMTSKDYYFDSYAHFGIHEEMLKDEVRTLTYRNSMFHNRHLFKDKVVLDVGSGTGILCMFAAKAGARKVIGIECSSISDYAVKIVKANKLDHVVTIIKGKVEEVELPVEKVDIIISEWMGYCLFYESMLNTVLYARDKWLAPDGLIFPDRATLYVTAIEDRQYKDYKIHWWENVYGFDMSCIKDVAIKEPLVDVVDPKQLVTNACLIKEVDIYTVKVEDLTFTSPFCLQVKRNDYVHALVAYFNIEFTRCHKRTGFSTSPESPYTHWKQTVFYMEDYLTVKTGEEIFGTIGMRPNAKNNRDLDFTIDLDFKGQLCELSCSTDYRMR
compound,measurement,setting,value
C=CC(=O)Nc1ccc(C)c(-c2cc(C(=O)NCc3c(C)cc(C)[nH]c3=O)c(C)c(N(CC)C3CCOCC3)c2)c1,Activity,[1],Non-Toxic
same,Vdss,[2],0.20228 L/kg
same,Tmax,[3],4.8 min
same,IC50,[4],> 100 µM
same,Activity,PA-1 [5],Tde
same,Activity,[6],Non-Toxic
same,inhibition,[7],Active
same,Activity,A2780 [8],Tde
same,IC50,NCI-H1703,26.3 µM
same,Activity,PA-1 [9],1.22%
same,Cmax,[10],6740 ng/mL
same,inhibition,[11],Active
same,IC50,MCF7,56.2 µM
same,inhibition,[12],Tde
same,inhibition,[13],Active
same,inhibition,[14],Active
same,inhibition,[15],Active
same,Activity,[16],Not Active
same,IC50,[17],1.27 µM
same,Activity,PA-1 [18],22.39%
same,IC50,PA-1 [19],10.1 µM
same,IC50,A549,28.7 µM
same,inhibition,[20],inactive
same,Activity,[21],Non-Toxic
same,inhibition,Mus musculus,Active
same,inhibition,PA-1 [22],Dose-Dependent Effect
same,Activity,PA-1 [23],87.19%
same,inhibition,[24],Active
same,inhibition,[25],Active
same,IC50,A2780 [26],11.2 µM
same,IC50,OVCAR-3,35.6 µM
same,Activity,PA-1 [27],5.21%
same,inhibition,PA-1 [28],Dose-Dependent Effect
same,Activity,[29],Active
same,Cmax,[30],22800 ng/mL
